# Patent publication US11680085B2, “Cyclic peptides for protection against respiratory syncytial virus” (VIROMETIX AG, priority 2017, dated 2023)
# Tested on: RSV A/Tracy
# Test: Micro-Neutralization Test (MNT)
# Assay type: cell-based, respiratory syncytial virus
# Settings: 40 μg/ml mAb in test solution
# Description: In order to assess the neutralization capacity of the mAb at 40 μg/ml against RSV A/Tracy a Micro-Neutralization Test (MNT) was performed. A 40 μg/ml Palivizumab stock was taken as positive control and 40 μg/ml stock of an isotype-matched mAb as negative control (Table 10).
substance,measurement,value
Palivizumab,"RSV A, Tracy MN titer (log2)",5.0 log2
